Results reported in PubChem BioAssay AID1745844 (Carcinogenic Potency Database (CPDB), 2022).
“And” between values parts separate entries of the source, which are not always exact repeats. Identical values can stand only once. The source made the active and inactive calls. How the calls were made is not given here.

Tested on: rodent lifetime carcinogenesis bioassay, tumor incidence TD50
Assay: chronic cancer bioassays in animals – CPDB, compiled studies (AID 1745844)
[1] = mouse, strain B6AKF1, females, oral dosing, site: any site (literature study), lesion: several types, types named in the paper, dosed 76 weeks, study length 76 weeks
[2] = mouse, strain B6AKF1, females, oral dosing, site: liver, lesion: hepatoma, dosed 76 weeks, study length 76 weeks
[3] = mouse, strain B6AKF1, females, oral dosing, site: lung, lesion: adenoma, dosed 76 weeks, study length 76 weeks
[4] = mouse, strain B6AKF1, males, oral dosing, site: any site (literature study), lesion: several types, types named in the paper, dosed 76 weeks, study length 76 weeks
[5] = mouse, strain B6AKF1, males, oral dosing, site: liver, lesion: hepatoma, dosed 76 weeks, study length 76 weeks
[6] = mouse, strain B6AKF1, males, oral dosing, site: lung, lesion: adenoma, dosed 76 weeks, study length 76 weeks
[7] = mouse, strain B6C3F1, females, oral dosing, site: any site (literature study), lesion: several types, types named in the paper, dosed 76 weeks, study length 76 weeks
[8] = mouse, strain B6C3F1, females, oral dosing, site: liver, lesion: hepatoma, dosed 76 weeks, study length 76 weeks
[9] = mouse, strain B6C3F1, females, oral dosing, site: lung, lesion: adenoma, dosed 76 weeks, study length 76 weeks
[10] = mouse, strain B6C3F1, males, oral dosing, site: any site (literature study), lesion: several types, types named in the paper, dosed 76 weeks, study length 76 weeks
[11] = mouse, strain B6C3F1, males, oral dosing, site: liver, lesion: hepatoma, dosed 76 weeks, study length 76 weeks
[12] = mouse, strain B6C3F1, males, oral dosing, site: lung, lesion: adenoma, dosed 76 weeks, study length 76 weeks
[13] = mouse, strain B6C3F1, females, by gavage, site: any site (literature study), lesion: several types, types named in the paper, dosed 103 weeks, study length 104 weeks
[14] = mouse, strain B6C3F1, females, by gavage, site: lung, lesion: alveolar/bronchiolar adenoma + alveolar/bronchiolar carcinoma, dosed 103 weeks, study length 104 weeks
[15] = mouse, strain B6C3F1, males, by gavage, site: any site (literature study), lesion: several types, types named in the paper, dosed 103 weeks, study length 104 weeks
[16] = rat, strain Fischer 344, females, by gavage, site: any site (literature study), lesion: several types, types named in the paper, dosed 103 weeks, study length 104 weeks
[17] = rat, strain Fischer 344, males, by gavage, site: any site (literature study), lesion: several types, types named in the paper, dosed 103 weeks, study length 104 weeks

For Nc1ccc(Nc2ccccc2)cc1, the carcinogen call (mouse, strain B6C3F1, females, in feed, site: any site (literature study), lesion: several types, types named in the paper, dosed 48 weeks, study length 91 weeks) was “negative (inactive)”, the carcinogen call (mouse, strain B6C3F1, males, in feed, site: any site (literature study), lesion: several types, types named in the paper, dosed 48 weeks, study length 91 weeks) was “negative (inactive)” and the TD50 (mouse, strain B6C3F1, males, in feed, site: liver, lesion: hepatocellular adenoma + hepatocellular carcinoma + neoplastic nodule, dosed 48 weeks, study length 91 weeks) was 213 mg/kg/day. For the same molecule, the carcinogen call (rat, strain Fischer 344, females, in feed, site: any site (literature study), lesion: several types, types named in the paper, dosed 78 weeks, study length 104 weeks) was “negative (inactive)” and the TD50 (rat, strain Fischer 344, males, in feed, site: any site (literature study), lesion: several types, types named in the paper, dosed 78 weeks, study length 104 weeks) was 161 mg/kg/day (inactive).
S=C(SSSSSSC(=S)N1CCCCC1)N1CCCCC1 was tested, and the TD50 [1] was 120 mg/kg/day (inactive), the carcinogen call [2] was “negative (inactive)” and the carcinogen call [3] was “negative (inactive)”. The carcinogen call [4] was “negative (inactive)”, the carcinogen call [5] was “negative (inactive)” and the carcinogen call [6] was “negative (inactive)”. For the same molecule, the TD50 [7] was 83.1 mg/kg/day (inactive), the carcinogen call [8] was “negative (inactive)” and the TD50 [9] was 83.1 mg/kg/day (inactive). For the same molecule, the TD50 [10] was 52.5 mg/kg/day (inactive), the TD50 [11] was 113 mg/kg/day (inactive) and the TD50 [12] was 113 mg/kg/day (inactive).
With NC(=O)NC1NC(=O)NC1=O (stereo not drawn) the carcinogen call (rat, strain Fischer 344, females, in feed, site: liver, lesion: neoplastic nodule, dosed 106 weeks, study length 128 weeks) was “negative (inactive)” and the carcinogen call (rat, strain Fischer 344, males, in feed, site: liver, lesion: neoplastic nodule, dosed 106 weeks, study length 128 weeks) was “negative (inactive)”.
For CS(=O)(=O)c1ccc([C@@H](O)[C@@H](CO)NC(=O)C(Cl)Cl)cc1, the TD50 (rat, strain F344/DuCrj, females, in drinking water, site: any site (literature study), lesion: one or several types, types not named, dosed 104 weeks, study length 108 weeks) was 43.2 mg/kg/day (inactive), the carcinogen call (rat, strain F344/DuCrj, females, in drinking water, site: liver, lesion: one or several types, types not named, dosed 104 weeks, study length 108 weeks) was “negative (inactive)” and the carcinogen call (rat, strain F344/DuCrj, males, in drinking water, site: any site (literature study), lesion: one or several types, types not named, dosed 104 weeks, study length 108 weeks) was “negative (inactive)”. For the same molecule, the TD50 (rat, strain F344/DuCrj, males, in drinking water, site: liver, lesion: hepatocellular adenoma, dosed 104 weeks, study length 108 weeks) was 683 mg/kg/day (inactive).
CCN(C#N)N=O was tested, and the TD50 (rat, strain MRC-Wistar, females, in drinking water, site: any site (literature study), lesion: several types, types named in the paper, dosed 52 weeks, study length 90 weeks) was 3.17 mg/kg/day, the TD50 (rat, strain MRC-Wistar, females, in drinking water, site: respiratory system, lesion: one or several types, types not named, dosed 52 weeks, study length 90 weeks) was 2.91 mg/kg/day and the TD50 (rat, strain MRC-Wistar, males, in drinking water, site: respiratory system, lesion: one or several types, types not named, dosed 52 weeks, study length 90 weeks) was 4.99 mg/kg/day.
With NNC(N)=O the TD50 (mouse, strain Swiss albino, females, in drinking water, site: blood vessels, lesion: angioma, dosed 118 weeks, study length 118 weeks) was 975 mg/kg/day, the TD50 (mouse, strain Swiss albino, females, in drinking water, site: blood vessels, lesion: angiosarcoma, dosed 118 weeks, study length 118 weeks) was 798 mg/kg/day and the TD50 (mouse, strain Swiss albino, females, in drinking water, site: blood vessels, lesion: several types, types named in the paper, dosed 118 weeks, study length 118 weeks) was 395 mg/kg/day. The TD50 (mouse, strain Swiss albino, females, in drinking water, site: liver, lesion: several types, types named in the paper, dosed 118 weeks, study length 118 weeks) was 798 mg/kg/day, the TD50 (mouse, strain Swiss albino, females, in drinking water, site: lung, lesion: adenoma, dosed 118 weeks, study length 118 weeks) was 333 mg/kg/day and the TD50 (mouse, strain Swiss albino, females, in drinking water, site: lung, lesion: several types, types named in the paper, dosed 118 weeks, study length 118 weeks) was 223 mg/kg/day. For the same molecule, the TD50 (mouse, strain Swiss albino, males, in drinking water, site: liver, lesion: hepatoma, dosed 118 weeks, study length 118 weeks) was 1420 mg/kg/day (inactive), the TD50 (mouse, strain Swiss albino, males, in drinking water, site: liver, lesion: several types, types named in the paper, dosed 118 weeks, study length 118 weeks) was 933 mg/kg/day and the TD50 (mouse, strain Swiss albino, males, in drinking water, site: lung, lesion: adenoma, dosed 118 weeks, study length 118 weeks) was 745 mg/kg/day. For the same molecule, the TD50 (mouse, strain Swiss albino, males, in drinking water, site: lung, lesion: several types, types named in the paper, dosed 118 weeks, study length 118 weeks) was 833 mg/kg/day.
In the case of Nc1ccc([N+](=O)[O-])cc1O, the TD50 [13] is reported as 5760 mg/kg/day (inactive), the TD50 [14] is reported as 807000 mg/kg/day and the carcinogen call [15] is reported as “negative (inactive)”. For the same molecule, the carcinogen call [16] was “negative (inactive)”, the TD50 (rat, strain Fischer 344, males, by gavage, site: adrenal medulla, lesion: pheochromocytoma + pheochromocytoma, malignant, dosed 103 weeks, study length 104 weeks) was 101 mg/kg/day and the TD50 [17] was 33.6 mg/kg/day. It also gave a TD50 (rat, strain Fischer 344, males, by gavage, site: liver, lesion: hepatocellular adenoma + hepatocellular carcinoma + neoplastic nodule, dosed 103 weeks, study length 104 weeks) of 1560 mg/kg/day, a TD50 (rat, strain Fischer 344, males, by gavage, site: pancreas, lesion: acinar-cell adenoma, dosed 103 weeks, study length 104 weeks) of 111 mg/kg/day and a TD50 (rat, strain Fischer 344, males, by gavage, site: pancreas, lesion: acinar-cell carcinoma + acinar-cell adenoma, dosed 103 weeks, study length 104 weeks) of 107 mg/kg/day. The TD50 (rat, strain Fischer 344, males, by gavage, site: pancreatic islets, lesion: islet-cell carcinoma, dosed 103 weeks, study length 104 weeks) was 393 mg/kg/day, the TD50 (rat, strain Fischer 344, males, by gavage, site: preputial gland, lesion: adenoma, NOS + carcinoma, NOS, dosed 103 weeks, study length 104 weeks) was 392 mg/kg/day and the TD50 (rat, strain Fischer 344, males, by gavage, site: preputial gland, lesion: carcinoma, NOS, dosed 103 weeks, study length 104 weeks) was 562 mg/kg/day. For the same molecule, the TD50 (rat, strain Fischer 344, males, by gavage, site: testis, lesion: interstitial-cell tumor, dosed 103 weeks, study length 104 weeks) was 28.6 mg/kg/day.
With Cc1ccc(N)c(C)c1 the TD50 (mouse, strain CD-1 HaM/ICR, females, in feed, site: any site (literature study), lesion: several types, types named in the paper, dosed 77 weeks, study length 90 weeks) was 12.2 mg/kg/day, the carcinogen call (mouse, strain CD-1 HaM/ICR, females, in feed, site: liver, lesion: several types, types named in the paper, dosed 77 weeks, study length 90 weeks) was “negative (inactive)” and the TD50 (mouse, strain CD-1 HaM/ICR, females, in feed, site: lung, lesion: several types, types named in the paper, dosed 77 weeks, study length 90 weeks) was 12.4 mg/kg/day and 13.5 mg/kg/day. The TD50 (mouse, strain CD-1 HaM/ICR, males, in feed, site: any site (literature study), lesion: several types, types named in the paper, dosed 77 weeks, study length 90 weeks) was 646 mg/kg/day (inactive), the TD50 (mouse, strain CD-1 HaM/ICR, males, in feed, site: liver, lesion: several types, types named in the paper, dosed 77 weeks, study length 90 weeks) was 65.4 mg/kg/day (inactive) and the carcinogen call (mouse, strain CD-1 HaM/ICR, males, in feed, site: lung, lesion: several types, types named in the paper, dosed 77 weeks, study length 90 weeks) was “negative (inactive)”. The TD50 (rat, strain Charles River CD (Sprague-Dawley), males, in feed, site: any site (literature study), lesion: several types, types named in the paper, dosed 77 weeks, study length 98 weeks) was 16.8 mg/kg/day (inactive) and the TD50 (rat, strain Charles River CD (Sprague-Dawley), males, in feed, site: liver, lesion: several types, types named in the paper, dosed 77 weeks, study length 98 weeks) was 260 mg/kg/day (inactive).
Work on CCCN(CCC)S(=O)(=O)c1ccc(C(=O)O)cc1 yielded a TD50 [13] of 498 mg/kg/day, a TD50 (mouse, strain B6C3F1, females, by gavage, site: liver, lesion: hepatocellular adenoma + hepatocellular carcinoma + neoplastic nodule, dosed 103 weeks, study length 104 weeks) of 540 mg/kg/day and a TD50 (mouse, strain B6C3F1, females, by gavage, site: liver, lesion: hepatocellular adenoma + hepatocellular carcinoma, dosed 103 weeks, study length 104 weeks) of 540 mg/kg/day. The TD50 (mouse, strain B6C3F1, females, by gavage, site: liver, lesion: hepatocellular adenoma, dosed 103 weeks, study length 104 weeks) was 561 mg/kg/day, the TD50 [14] was 1980 mg/kg/day and the TD50 [15] was 276 mg/kg/day. For the same molecule, the TD50 (mouse, strain B6C3F1, males, by gavage, site: liver, lesion: hepatocellular adenoma + hepatocellular carcinoma + neoplastic nodule, dosed 103 weeks, study length 104 weeks) was 731 mg/kg/day, the TD50 (mouse, strain B6C3F1, males, by gavage, site: lung, lesion: alveolar/bronchiolar adenoma + alveolar/bronchiolar carcinoma, dosed 103 weeks, study length 104 weeks) was 2320 mg/kg/day and the TD50 (mouse, strain B6C3F1, males, by gavage, site: subcutaneous tissue, lesion: fibroma, dosed 103 weeks, study length 104 weeks) was 2130 mg/kg/day (inactive). For the same molecule, the TD50 [16] was 1540 mg/kg/day (inactive), the TD50 (rat, strain Fischer 344, females, by gavage, site: liver, lesion: hepatocellular adenoma + hepatocellular carcinoma + neoplastic nodule, dosed 103 weeks, study length 104 weeks) was 1790 mg/kg/day and the TD50 [17] was 296 mg/kg/day. For the same molecule, the TD50 (rat, strain Fischer 344, males, by gavage, site: testis, lesion: interstitial-cell adenoma, bilateral + interstitial-cell adenoma, dosed 103 weeks, study length 104 weeks) was 212 mg/kg/day (inactive).
In the case of O=C1CCCCC1, the TD50 (mouse, strain B6C3F1, females, in drinking water, site: all sites, lesion: malignant lymphoma, dosed 104 weeks, study length 107 weeks) is reported as 3690 mg/kg/day, the TD50 (rat, strain Fischer 344, females, in drinking water, site: liver, lesion: neoplastic nodule, dosed 104 weeks, study length 107 weeks) is reported as 6300 mg/kg/day and the TD50 (rat, strain Fischer 344, males, in drinking water, site: adrenal gland, lesion: cortical adenoma, dosed 104 weeks, study length 107 weeks) is reported as 929 mg/kg/day.
CN(C)C(=O)Nc1ccc(Cl)c(Cl)c1 was tested, and the carcinogen call [1] was “negative (inactive)”, the carcinogen call [2] was “negative (inactive)” and the carcinogen call [3] was “negative (inactive)”. For the same molecule, the TD50 [4] was 260 mg/kg/day (inactive), the carcinogen call [5] was “negative (inactive)” and the TD50 [6] was 437 mg/kg/day (inactive). For the same molecule, the TD50 [7] was 388 mg/kg/day (inactive), the carcinogen call [8] was “negative (inactive)” and the TD50 [9] was 600 mg/kg/day (inactive). The TD50 [10] was 361 mg/kg/day (inactive), the TD50 [11] was 1150 mg/kg/day (inactive) and the TD50 [12] was 1150 mg/kg/day (inactive).
Cc1csc(NNC=O)n1 gave a TD50 (rat, strain Sprague-Dawley, females, in feed, site: any site (literature study), lesion: several types, types named in the paper, dosed 46 weeks, study length 64 weeks) of 14.4 mg/kg/day and a TD50 (rat, strain Sprague-Dawley, females, in feed, site: mammary gland, lesion: adenofibroma, dosed 46 weeks, study length 64 weeks) of 14.4 mg/kg/day.
In the case of COc1cc(OC)c2c3c(c(=O)oc2c1)CCC3=O, the carcinogen call (rat, strain Fischer, males, by gavage, site: liver, lesion: one or several types, types not named, dosed 52 weeks, study length 74 weeks) is reported as “negative (inactive)”.
